The conditions of series [1]: human, in vivo, cited from earlier work.
For another series, the system named is STZ-diabetic rats. Briefly: Plasma glucose lowering in STZ-diabetic rats after i.p. administration (glucose oxidase method). Format: in vivo, male Wistar rats. Conditions: for AUC (blood glucose): over 72 h after 0.12 mmol/kg i.p., group average; for rats with plasma glucose levels reduced to <9 mmol/L: 0.12 mmol/kg i.p. in 3% gum Arabic, STZ-diabetic rats. The protocol: Nineteen male Wistar rats weighing 190-220 g were obtained from the Animal Care Center at the University of British Columbia. Animals were acclimatized for a period of 7-14 days in our facility.
Animals were made diabetic with a single intravenous injection of streptozotocin (STZ) (Source: Sigma) at 60 mg/kg in 0.9% NaCl (1 mL/kg volume) (Source: BDH ) under light halothane (Halocarbon Laboratories) anaesthesia. The diabetic state was confirmed on the third day post-stz-administration with Ames brand Glucometer and Glucostix reading, and blood glucose levels of over 13 mM were categorized as diabetic.
On day seven post STZ-administration, the nineteen animals were divided randomly into four groups. These four groups received one of four treatments, including control. The control group received an equivalent volume of 3% gum Arabic carrier alone.
The gum arabic was prepared by dissolving 3 g of gum arabic in 100 mL of distilled water. This mixture was sealed and stored under refrigeration for 1 week before the experiment.
All drugs were injected intraperitoneally into the rats at a volume of 5 ml/kg in 3% gum Arabic. The dose of administration was 0.12 mmol/kg.
Animals were allowed free access to food.
Blood was collected from the tail into heparinized capillary tubes and centrifuged at 10,000 g for 15 minutes. Blood was collected in 50 μL aliquots in this manner prior to drug administration, and at 2, 4, 6, 8, 12, 16, 20, 24, 48 and 72 hours post administration.
The plasma was analyzed for glucose levels using Boehringer Mannheim Glucose Kits (glucose oxidase method).

For series [2] the following is noted: withdrawn drug; cited from earlier work.
The next series relates to STZ diabetic rats. The conditions noted are these: cited from earlier work.
For series [3] the following is noted: Sakurai et al. (1980); cited from earlier work.
The subject of a further series is rat adipocytes. Conditions: in vitro, Nature 284:556-558 (1980); cited from earlier work.

As for `CN(C)C(=N)NC(=N)N` [Metformin, 1,1-dimethylbiguanide], the “dose excreted by the kidneys” value in series [1] (24 h) is on record as “about 90%”. The “oral dose excreted in the feces” value in series [1] (po) is given as “Approximately 30%”. Further, the “acute lowering of plasma glucose (in words)” value with STZ-diabetic rats (IP 0.12 mmol/kg in 3% gum Arabic, over 72 hours) is “did not acutely lower plasma glucose levels”. For the same molecule, the “AUC (blood glucose)” value with STZ-diabetic rats is listed as 1572.94 mmol/L/h.

For the molecule `[H]/N=C(/N)N/C(=N/[H])NCCc1ccccc1` [phenformin, 1-phenethylbiguanide], in series [2], the “side effects (in words)” value is “serious lactic acidosis side effects”.

Regarding `[O]=[V]([O-])([O-])[O-]` [vanadate], in the series with STZ diabetic rats (STZ rats, administered in drinking water, McNeill et al. 1985), the “elevated blood glucose (in words)” value is “decreased the elevated blood glucose”. In addition, in the series on STZ diabetic rats (STZ rats, drinking water, McNeill et al. 1985), the “depression of cardiac performance (in words)” value is “prevented the depression of cardiac performance”. Also, in series [3], the “in vivo reduction (in words)” value is reported as “reduced in vivo to vanadyl”.

`[O]=[V+2]` [vanadyl ion]: the “stimulation of glucose oxidation (in words)” value in the series with rat adipocytes is “insulin-like stimulation of glucose oxidation in rat adipocytes was due to the vanadyl ion”.

Consider `O=S(=O)([O-])[O-].[O]=[V+2]` [vanadyl sulfate], for which the “blood glucose and blood lipids (in words)” value in the series with STZ diabetic rats (oral, STZ diabetic rats, McNeill et al.) is “lowers blood glucose and blood lipids”. For the same molecule, the “secondary complications of diabetes (in words)” value in the series on STZ diabetic rats (oral, STZ diabetic rats, cataracts and cardiac dysfunction) is “prevents secondary complications of diabetes such as cataracts and cardiac dysfunction”.

For “Bis(N^1,N^1 -dimethylbiguanidato)oxovanadium(IV) [VO(met)2]”, in the series on STZ-diabetic rats, the “rats with plasma glucose levels reduced to <9 mmol/L” value amounted to 40% and the “AUC (blood glucose)” value stood at 1362.61 mmol/L/h. Besides, the “plasma glucose lowering, rat studies (in words)” value in the series on STZ-diabetic rats (rat studies, summary statement) is reported as “active in lowering plasma glucose”.

For the molecule “Bis(ethylmaltolato) oxovanadium(IV) [BEOV]”, in the series with STZ-diabetic rats, the “rats with plasma glucose levels reduced to <9 mmol/L” value is on record as 40% and the “AUC (blood glucose)” value came out at 1197.30 mmol/L/h.

These data come from patent US6287586A, “Pharmaceutical compositions of vanadium biguanide complexes and their use” (priority 1999, dated 2001).
